Tests used:
[1] = target: T1, HSP 90β (PG771) (Homo sapiens, UniProt P08238); test: Isolation of proteins binding 3H-triptolide in Jurkat cells (FPLC, 2D gel, fluorography, MALDI-MS); details: 3H-labeled compound incubated with Jurkat cells
T1 construct: Jurkat cells from expanding cultures were labeled with; endogenous in cells; host or cells: Jurkat
Procedure: Triptolide target molecules were isolated and identified by purification and identification of molecules that bind ^3H-triptolide. Jurkat cells from expanding cultures were labeled with ^3H-triptolide by cultivation at 37° C. with 5% CO2 for a period of time between a few hours and overnight (usually 6-7 hours) and harvested by centrifugation and washing in ice-cold phosphate buffered saline. The cells (usually 1-3×10^6/ml) were generally labeled with ^3H-triptolide to a final concentration of 35 nM (100 μCi/200 ml of medium). […]
(§1) The cells were extracted with M-per buffer (Pierce) and homogenized in presence of a protease inhibitor cocktail, sometimes including other reagents such as deoxyribonuclease (DNase). […] When the extracts components were found not to be sufficiently purified, enriched or reduced in number, 2D gel electrophoresis was employed, followed by fluorography for ^3H-associated radioactivity detection, and MALDI/MS of the corresponding peptides (after proteolysis) and peptide fingerprinting. […]
MALDI-MS peptide fingerprinting analysis identified HSP 90β (PG771) in fraction #4 and L-plastin (PG772) in fraction #9. […] A positive spot on the film (fluorographically positive, therefore positive for ^3H-associated radioactivity) was seen near the 29 kDa protein marker. […]

[2] = test system: T2, Hypothetical Protein (GI 11277141), superfamily HSP 90 (PG788) (Homo sapiens); test: Isolation of proteins binding 3H-triptolide in Jurkat cells; details: 3H-labeled Jurkat cell extract
T2 construct: endogenous in cells; host or cells: Jurkat
Procedure: (§2) Triptolide target molecules were isolated and identified by purification and identification of molecules that bind ^3H-triptolide. Jurkat cells from expanding cultures were labeled with ^3H-triptolide by cultivation at 37° C. with 5% CO2 for a period of time between a few hours and overnight (usually 6-7 hours) and harvested by centrifugation and washing in ice-cold phosphate buffered saline. The cells (usually 1-3×10^6/ml) were generally labeled with ^3H-triptolide to a final concentration of 35 nM (100 μCi/200 ml of medium). Collected cell pellets were pooled, and the cells were either extracted and subjected to separation and purification at that time, or were frozen and stored at −20° C. as pellets for extraction and investigation at a later time.
as §1

[3] = target: T3, Human Serine/Threonine Protein Phosphatase 2A 130 KDa regulatory subunit, PP2A (PG789) (Homo sapiens, UniProt Q06190); test: as above; details: 3H-labeled Jurkat cell extract
T3 construct: endogenous in cells; host or cells: Jurkat
Procedure: as §2, §1

[4] = test system: p53 pathway; details: cited from earlier work
[5] = test system: human T cell lymphoma (Jurkat) cells; details: cited from earlier work

T3 sequence (Q06190 whole entry): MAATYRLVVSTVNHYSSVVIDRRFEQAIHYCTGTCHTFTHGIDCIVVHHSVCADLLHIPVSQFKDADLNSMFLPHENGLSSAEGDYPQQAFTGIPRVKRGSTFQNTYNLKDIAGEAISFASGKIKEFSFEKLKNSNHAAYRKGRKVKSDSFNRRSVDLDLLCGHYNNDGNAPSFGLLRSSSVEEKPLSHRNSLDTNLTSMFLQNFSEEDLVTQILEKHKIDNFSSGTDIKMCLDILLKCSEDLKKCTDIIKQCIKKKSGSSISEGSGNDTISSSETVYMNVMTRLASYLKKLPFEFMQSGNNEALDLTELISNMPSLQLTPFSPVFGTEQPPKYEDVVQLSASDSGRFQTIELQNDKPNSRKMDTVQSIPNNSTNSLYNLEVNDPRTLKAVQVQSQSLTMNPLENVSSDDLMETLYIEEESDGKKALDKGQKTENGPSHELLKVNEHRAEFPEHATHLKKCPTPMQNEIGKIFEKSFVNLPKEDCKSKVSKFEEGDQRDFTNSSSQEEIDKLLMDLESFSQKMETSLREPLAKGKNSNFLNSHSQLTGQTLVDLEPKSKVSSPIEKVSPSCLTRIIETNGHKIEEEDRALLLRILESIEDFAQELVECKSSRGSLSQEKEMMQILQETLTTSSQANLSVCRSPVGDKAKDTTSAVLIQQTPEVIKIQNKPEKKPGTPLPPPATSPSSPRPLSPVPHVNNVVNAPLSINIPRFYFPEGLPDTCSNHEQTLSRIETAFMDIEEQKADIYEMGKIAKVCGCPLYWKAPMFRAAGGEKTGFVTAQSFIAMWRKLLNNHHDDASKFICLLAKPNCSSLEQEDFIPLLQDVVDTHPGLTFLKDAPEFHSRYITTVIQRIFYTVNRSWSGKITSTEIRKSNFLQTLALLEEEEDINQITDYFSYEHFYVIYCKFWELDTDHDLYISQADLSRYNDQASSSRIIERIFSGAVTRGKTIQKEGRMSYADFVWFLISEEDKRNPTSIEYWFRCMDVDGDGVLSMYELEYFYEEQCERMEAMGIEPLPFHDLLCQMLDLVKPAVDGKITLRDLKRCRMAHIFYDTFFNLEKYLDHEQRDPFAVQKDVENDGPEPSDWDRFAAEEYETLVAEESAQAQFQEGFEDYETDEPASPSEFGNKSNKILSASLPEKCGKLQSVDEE
T2 sequence (P08238 2-724 limits assumed): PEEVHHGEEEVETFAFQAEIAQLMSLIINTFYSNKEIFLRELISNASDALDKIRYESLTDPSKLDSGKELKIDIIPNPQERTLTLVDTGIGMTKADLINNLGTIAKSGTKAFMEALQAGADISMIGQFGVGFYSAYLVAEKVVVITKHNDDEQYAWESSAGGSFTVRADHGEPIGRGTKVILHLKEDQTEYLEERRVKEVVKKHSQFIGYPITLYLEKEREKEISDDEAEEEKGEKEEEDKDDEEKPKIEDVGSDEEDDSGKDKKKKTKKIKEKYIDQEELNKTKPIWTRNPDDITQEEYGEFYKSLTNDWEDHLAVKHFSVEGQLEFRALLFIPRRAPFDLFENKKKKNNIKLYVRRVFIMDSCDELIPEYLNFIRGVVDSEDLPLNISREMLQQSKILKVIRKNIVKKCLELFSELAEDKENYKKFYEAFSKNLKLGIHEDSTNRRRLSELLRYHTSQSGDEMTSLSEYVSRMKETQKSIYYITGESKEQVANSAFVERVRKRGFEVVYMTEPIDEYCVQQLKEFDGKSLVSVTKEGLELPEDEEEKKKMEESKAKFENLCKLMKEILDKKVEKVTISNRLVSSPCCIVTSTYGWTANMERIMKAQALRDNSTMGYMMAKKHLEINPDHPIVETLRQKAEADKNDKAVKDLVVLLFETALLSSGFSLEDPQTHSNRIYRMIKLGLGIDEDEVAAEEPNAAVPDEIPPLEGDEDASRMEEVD
T1 sequence (P08238 whole entry): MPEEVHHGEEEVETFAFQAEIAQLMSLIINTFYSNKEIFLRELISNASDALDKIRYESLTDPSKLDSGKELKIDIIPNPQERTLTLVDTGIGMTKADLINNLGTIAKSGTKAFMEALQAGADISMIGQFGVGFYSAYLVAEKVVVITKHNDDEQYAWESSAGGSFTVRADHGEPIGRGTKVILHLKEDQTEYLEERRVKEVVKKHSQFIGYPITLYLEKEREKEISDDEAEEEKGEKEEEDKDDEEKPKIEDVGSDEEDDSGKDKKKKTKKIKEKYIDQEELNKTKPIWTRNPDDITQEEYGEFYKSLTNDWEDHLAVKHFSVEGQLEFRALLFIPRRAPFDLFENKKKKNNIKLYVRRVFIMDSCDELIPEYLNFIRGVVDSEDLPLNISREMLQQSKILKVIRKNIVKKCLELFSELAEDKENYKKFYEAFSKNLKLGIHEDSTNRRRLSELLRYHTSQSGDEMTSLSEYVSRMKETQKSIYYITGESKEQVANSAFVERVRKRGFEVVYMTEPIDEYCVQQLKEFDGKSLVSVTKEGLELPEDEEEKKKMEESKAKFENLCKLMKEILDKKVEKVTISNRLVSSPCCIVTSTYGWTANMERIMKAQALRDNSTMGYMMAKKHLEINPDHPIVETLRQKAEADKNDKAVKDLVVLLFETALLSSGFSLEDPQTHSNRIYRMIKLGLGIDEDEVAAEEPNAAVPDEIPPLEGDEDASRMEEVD

CC(C)[C@]12O[C@H]1[C@@H]1O[C@]13[C@]1(O[C@H]1C[C@H]1C4=C(CC[C@@]13C)C(=O)OC4)[C@@H]2O [triptolide]
3H-associated protein identified as triptolide target: HSP 90β [1]: identified
3H-associated protein identified as triptolide target: GI 11277141 [2]: identified
3H-associated protein identified as triptolide target: PP2A 130 KDa regulatory subunit [3]: identified
cell cycle arrest induced by p21 after p53 activation [4]: inhibiting the cell cycle arrest induced by p21 after p53 activation
cytotoxicity [5]: cytotoxicity in human T cell lymphoma (Jurkat) cells

— patent US8617906B2, “Identification and screening of triptolide target molecules” (priority 2004, dated 2013)
